These results are taken from patent US20090203062A1, “Method For Identifying And/Or Quantifying Anti-Infective Compounds” (priority 2005, published 2009).

The test system of experiment [1] is Klebsiella pneumoniae. In words: Klebsiella pneumoniae murine pulmonary infection model. It counts as in vivo. To be noted: 24 h post-infection, female Balb/cN mice. On the procedure:
Klebsiella pulmonary infection model was performed by intranasal instillation of 7-8 weeks old female Balb/cN with 20 μl containing […]. Compound or cefotaxime were injected intraperitoneally every 6 hours from the time of infection at the indicated doses. In vivo efficacy was assessed by measuring colony forming units (CFU) loads in the lungs at 24 h hours. Data analysis was performed using GraphPad Software Inc, San Diego, Calif., USA. Lane 1 is the initial load at time zero of the infection. Lane 2 is the load at 24 hours post-infection of mice treated with the vehicle only.

Experiment [2] deals with Klebsiella pneumoniae. To be noted: Tetrahymena pyriformis present; compared with the antibiotic activity IC50; FIG. 9.
Text: Preparation of SM no glucose (SM-) and Tetrahymena Medium is as described in example 1. […] Strains description Same Klebsiella pneumoniae strain is used as in example 1. […] Preparation of Tetrahymena pyriformis (Tp): The same Tp is used as in example 1. The day of the screen, resuspend the Tp cells in SM- and distribute Tp cells in the 384 well plates. […] Liquid dispenser for medium distribution Fill the same number of test plates as above with SM- with the liquid dispenser plate filler. (To test the antibiotic activity of the compounds). […] Description of the mother plate of compounds Each mother plate containing 24 columns of compounds is composed of 4 control columns (1, 12, 13 and 24) of DMSO and 320 wells of compounds. The DMSO columns have to be arranged according to the library. […] Transfer of library compounds with the 384 pin replicator. A test plate for quantifying anti-virulence activity contains Tp solution. A test plate for quantifying antibiotic activity contains SM-. […]
Tp, Klebsiella pneumoniae, compound are prepared as described in example 2 and incubated in a matrix containing 384 wells (12×24) wells at 35° C. in humidity saturated incubator. […] Mutations or compound affecting pathogenicity could be assessed in terms of phenotype strength and potency, respectively with decreasing concentration of Tp.

Turning to `CO/N=C(\C(=O)N[C@@H]1C(=O)N2C(C(=O)O)=C(COC(C)=O)CS[C@H]12)c1csc(N)n1` [cefotaxime], the “reduction of CFU load in the lungs” value in the experiment with Klebsiella pneumoniae [1] (37.5 mg/kg/day intraperitoneally every 6 hours) amounted to 4 Log.
With `C=CCSc1nnc(C)c(O)n1` [3-(allylsulfanyl)-5-hydroxy-6-methyl-1,2,4-triazine], the “reduction of CFU load in the lungs” value in the experiment on Klebsiella pneumoniae [1] (225 mg/kg/day intraperitoneally every 6 hours) was found to be 4 Log.
Take `COc1cc(Cc2cnc(N)nc2N)cc(OC)c1OC` [trimethoprim]: the “concentration at which the avirulence assay detected the antibiotic, lower than the IC50 of the antibiotic (sub-MIC effect)” value in the experiment with Klebsiella pneumoniae [2] is 2 Log.
